Measured values as given in patent US12479847B2 (DANA-FARBER CANCER INSTITUTE, INC., priority 2019, dated 2025).

Columns and labels:
Assay in all cases: KINOMEscan (ScanMAX) kinase profiling
Assay type in all cases: binding
panel of 468 kinases [1] = target: T1, panel of 468 kinases (Homo sapiens, UniProt Q9UKI8); details: TLK1; 1 μM; read-out: % control
T1 construct: purchased KINOMEscan (ScanMAX) service
T1 sequence (Q9UKI8 1-766): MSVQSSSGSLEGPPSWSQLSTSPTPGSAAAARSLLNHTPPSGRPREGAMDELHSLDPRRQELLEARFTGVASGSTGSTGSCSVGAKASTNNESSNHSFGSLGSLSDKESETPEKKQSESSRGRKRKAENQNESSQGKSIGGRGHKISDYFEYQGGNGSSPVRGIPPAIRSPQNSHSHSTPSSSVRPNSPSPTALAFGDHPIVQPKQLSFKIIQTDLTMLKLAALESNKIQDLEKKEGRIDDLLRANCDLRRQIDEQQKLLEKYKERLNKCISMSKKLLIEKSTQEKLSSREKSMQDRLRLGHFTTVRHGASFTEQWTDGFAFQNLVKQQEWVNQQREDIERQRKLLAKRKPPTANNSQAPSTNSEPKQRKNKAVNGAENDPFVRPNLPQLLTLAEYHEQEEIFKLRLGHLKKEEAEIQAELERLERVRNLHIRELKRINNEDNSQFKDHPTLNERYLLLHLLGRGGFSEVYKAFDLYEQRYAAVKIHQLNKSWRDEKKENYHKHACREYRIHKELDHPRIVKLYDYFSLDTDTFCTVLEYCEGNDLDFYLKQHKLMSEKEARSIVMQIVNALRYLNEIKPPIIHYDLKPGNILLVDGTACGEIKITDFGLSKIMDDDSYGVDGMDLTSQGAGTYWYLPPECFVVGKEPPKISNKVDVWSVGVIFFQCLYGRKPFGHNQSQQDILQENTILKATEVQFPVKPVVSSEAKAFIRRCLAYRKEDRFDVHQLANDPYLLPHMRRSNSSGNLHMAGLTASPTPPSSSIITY

panel of 468 kinases [2] = target: T2, panel of 468 kinases (Homo sapiens, UniProt P00533); details: EGFR; 1 μM; read-out: % control
T2 construct: purchased KINOMEscan (ScanMAX) service

panel of 468 kinases [3] = target: T3, panel of 468 kinases (Homo sapiens, UniProt Q13233); details: MAP3K1; 1 μM; read-out: % control
T3 construct: purchased KINOMEscan (ScanMAX) service

panel of 468 kinases [4] = target: T4, panel of 468 kinases (Homo sapiens, UniProt Q96RR4); details: CAMKK2; 1 μM; read-out: % control
T4 construct: purchased KINOMEscan (ScanMAX) service

panel of 468 kinases [5] = target: T5, panel of 468 kinases (Homo sapiens, UniProt P15735); details: PHKG2; 1 μM; read-out: % control
T5 construct: purchased KINOMEscan (ScanMAX) service
T5 sequence (P15735 1-406): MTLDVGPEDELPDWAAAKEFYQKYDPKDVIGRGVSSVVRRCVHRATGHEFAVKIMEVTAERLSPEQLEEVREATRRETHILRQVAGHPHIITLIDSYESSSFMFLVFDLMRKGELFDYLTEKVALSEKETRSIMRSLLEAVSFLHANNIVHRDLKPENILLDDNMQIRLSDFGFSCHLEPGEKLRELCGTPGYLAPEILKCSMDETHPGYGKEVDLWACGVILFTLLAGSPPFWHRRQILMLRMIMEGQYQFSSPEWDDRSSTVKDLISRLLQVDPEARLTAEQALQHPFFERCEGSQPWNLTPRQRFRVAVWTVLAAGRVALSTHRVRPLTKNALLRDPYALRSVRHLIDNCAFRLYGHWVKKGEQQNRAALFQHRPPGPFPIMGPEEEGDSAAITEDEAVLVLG

panel of 468 kinases [6] = target: T6, panel of 468 kinases (Homo sapiens, UniProt Q13043); details: MST1; 1 μM; read-out: % control
T6 construct: purchased KINOMEscan (ScanMAX) service
T6 sequence (Q13043 1-487): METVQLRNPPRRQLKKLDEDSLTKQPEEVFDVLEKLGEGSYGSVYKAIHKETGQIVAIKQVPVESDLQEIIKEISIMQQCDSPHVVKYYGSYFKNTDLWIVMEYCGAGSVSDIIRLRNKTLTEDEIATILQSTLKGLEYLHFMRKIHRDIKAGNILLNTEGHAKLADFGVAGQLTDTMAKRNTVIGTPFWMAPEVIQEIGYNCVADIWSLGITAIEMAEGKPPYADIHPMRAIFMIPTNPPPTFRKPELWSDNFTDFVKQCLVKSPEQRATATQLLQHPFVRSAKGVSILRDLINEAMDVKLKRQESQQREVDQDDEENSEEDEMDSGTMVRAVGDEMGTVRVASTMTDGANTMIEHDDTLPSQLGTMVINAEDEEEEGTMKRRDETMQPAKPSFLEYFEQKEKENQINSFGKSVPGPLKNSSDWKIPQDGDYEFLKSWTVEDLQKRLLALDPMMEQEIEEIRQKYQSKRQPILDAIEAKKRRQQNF

panel of 468 kinases [7] = target: T7, panel of 468 kinases (Homo sapiens, UniProt Q8TDX7); details: NEK7; 1 μM; read-out: % control
T7 construct: purchased KINOMEscan (ScanMAX) service

panel of 468 kinases [8] = target: T8, panel of 468 kinases (Homo sapiens, UniProt P0C264); details: SgK110; 1 μM; read-out: % control
T8 construct: purchased KINOMEscan (ScanMAX) service
T8 sequence (P0C264 1-359): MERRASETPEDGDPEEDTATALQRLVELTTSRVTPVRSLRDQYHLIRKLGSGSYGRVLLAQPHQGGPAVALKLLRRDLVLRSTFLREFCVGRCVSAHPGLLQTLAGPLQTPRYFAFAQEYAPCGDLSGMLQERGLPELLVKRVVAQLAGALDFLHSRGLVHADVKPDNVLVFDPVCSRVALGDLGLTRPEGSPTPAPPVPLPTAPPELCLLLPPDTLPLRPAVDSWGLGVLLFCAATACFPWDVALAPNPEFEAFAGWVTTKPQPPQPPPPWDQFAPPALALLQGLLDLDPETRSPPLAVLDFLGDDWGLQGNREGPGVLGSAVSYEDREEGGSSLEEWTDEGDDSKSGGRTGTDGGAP

panel of 468 kinases [9] = target: T9, panel of 468 kinases (Homo sapiens, UniProt Q9UKE5); details: TNIK; 1 μM; read-out: % control
T9 construct: purchased KINOMEscan (ScanMAX) service

panel of 468 kinases [10] = target: T10, panel of 468 kinases (Homo sapiens, UniProt O00238); details: BMPR1B; 1 μM; read-out: % control
T10 construct: purchased KINOMEscan (ScanMAX) service

T4 sequence (Q96RR4 whole entry): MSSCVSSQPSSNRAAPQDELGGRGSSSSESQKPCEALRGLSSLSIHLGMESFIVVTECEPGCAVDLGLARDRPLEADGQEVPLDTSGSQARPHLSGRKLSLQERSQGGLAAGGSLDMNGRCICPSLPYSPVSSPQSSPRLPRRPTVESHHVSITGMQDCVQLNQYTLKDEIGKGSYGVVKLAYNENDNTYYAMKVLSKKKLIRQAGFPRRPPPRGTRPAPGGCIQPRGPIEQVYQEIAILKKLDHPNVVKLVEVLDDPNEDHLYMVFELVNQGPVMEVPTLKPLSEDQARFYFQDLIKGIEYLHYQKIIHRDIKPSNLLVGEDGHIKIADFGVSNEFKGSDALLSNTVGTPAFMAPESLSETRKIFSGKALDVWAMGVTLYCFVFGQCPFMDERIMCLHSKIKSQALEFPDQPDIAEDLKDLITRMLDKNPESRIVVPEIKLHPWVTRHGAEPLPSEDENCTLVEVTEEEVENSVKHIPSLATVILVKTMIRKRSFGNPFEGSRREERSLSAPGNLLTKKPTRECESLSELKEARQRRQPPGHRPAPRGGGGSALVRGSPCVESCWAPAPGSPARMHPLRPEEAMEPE
T9 sequence (Q9UKE5 whole entry): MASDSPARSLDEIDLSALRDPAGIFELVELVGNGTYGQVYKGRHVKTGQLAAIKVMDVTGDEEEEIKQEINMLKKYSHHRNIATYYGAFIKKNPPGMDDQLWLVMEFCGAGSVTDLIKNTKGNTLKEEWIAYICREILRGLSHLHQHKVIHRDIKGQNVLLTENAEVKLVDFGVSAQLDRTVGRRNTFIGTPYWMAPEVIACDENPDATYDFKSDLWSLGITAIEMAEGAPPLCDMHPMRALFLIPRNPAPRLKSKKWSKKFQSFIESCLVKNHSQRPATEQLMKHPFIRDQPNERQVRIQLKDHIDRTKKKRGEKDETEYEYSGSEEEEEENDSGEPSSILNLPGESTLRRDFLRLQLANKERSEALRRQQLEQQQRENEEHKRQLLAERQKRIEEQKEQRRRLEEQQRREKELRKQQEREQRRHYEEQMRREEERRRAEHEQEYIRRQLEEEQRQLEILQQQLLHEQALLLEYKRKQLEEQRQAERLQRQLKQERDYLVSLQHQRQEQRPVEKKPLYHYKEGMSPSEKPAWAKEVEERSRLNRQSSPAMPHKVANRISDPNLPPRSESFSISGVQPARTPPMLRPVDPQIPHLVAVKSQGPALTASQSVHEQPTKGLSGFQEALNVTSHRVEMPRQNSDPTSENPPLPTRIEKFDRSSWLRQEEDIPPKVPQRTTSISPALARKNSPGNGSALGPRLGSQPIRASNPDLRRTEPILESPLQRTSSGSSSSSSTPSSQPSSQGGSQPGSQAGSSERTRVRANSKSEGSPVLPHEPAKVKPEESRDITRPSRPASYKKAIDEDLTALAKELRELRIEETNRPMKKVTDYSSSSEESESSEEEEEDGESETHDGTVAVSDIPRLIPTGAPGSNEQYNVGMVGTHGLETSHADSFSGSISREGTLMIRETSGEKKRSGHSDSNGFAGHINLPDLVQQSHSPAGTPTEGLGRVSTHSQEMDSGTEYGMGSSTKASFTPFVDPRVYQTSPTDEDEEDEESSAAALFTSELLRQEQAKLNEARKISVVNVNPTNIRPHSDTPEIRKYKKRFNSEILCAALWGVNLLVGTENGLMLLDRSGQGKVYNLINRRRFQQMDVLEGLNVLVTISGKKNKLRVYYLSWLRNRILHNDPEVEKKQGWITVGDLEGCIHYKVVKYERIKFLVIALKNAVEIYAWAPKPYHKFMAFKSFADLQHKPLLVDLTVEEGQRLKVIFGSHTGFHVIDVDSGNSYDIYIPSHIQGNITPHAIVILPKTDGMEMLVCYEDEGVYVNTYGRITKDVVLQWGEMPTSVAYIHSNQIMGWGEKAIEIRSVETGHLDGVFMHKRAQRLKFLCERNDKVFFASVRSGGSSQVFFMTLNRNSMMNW
T3 sequence (Q13233 whole entry): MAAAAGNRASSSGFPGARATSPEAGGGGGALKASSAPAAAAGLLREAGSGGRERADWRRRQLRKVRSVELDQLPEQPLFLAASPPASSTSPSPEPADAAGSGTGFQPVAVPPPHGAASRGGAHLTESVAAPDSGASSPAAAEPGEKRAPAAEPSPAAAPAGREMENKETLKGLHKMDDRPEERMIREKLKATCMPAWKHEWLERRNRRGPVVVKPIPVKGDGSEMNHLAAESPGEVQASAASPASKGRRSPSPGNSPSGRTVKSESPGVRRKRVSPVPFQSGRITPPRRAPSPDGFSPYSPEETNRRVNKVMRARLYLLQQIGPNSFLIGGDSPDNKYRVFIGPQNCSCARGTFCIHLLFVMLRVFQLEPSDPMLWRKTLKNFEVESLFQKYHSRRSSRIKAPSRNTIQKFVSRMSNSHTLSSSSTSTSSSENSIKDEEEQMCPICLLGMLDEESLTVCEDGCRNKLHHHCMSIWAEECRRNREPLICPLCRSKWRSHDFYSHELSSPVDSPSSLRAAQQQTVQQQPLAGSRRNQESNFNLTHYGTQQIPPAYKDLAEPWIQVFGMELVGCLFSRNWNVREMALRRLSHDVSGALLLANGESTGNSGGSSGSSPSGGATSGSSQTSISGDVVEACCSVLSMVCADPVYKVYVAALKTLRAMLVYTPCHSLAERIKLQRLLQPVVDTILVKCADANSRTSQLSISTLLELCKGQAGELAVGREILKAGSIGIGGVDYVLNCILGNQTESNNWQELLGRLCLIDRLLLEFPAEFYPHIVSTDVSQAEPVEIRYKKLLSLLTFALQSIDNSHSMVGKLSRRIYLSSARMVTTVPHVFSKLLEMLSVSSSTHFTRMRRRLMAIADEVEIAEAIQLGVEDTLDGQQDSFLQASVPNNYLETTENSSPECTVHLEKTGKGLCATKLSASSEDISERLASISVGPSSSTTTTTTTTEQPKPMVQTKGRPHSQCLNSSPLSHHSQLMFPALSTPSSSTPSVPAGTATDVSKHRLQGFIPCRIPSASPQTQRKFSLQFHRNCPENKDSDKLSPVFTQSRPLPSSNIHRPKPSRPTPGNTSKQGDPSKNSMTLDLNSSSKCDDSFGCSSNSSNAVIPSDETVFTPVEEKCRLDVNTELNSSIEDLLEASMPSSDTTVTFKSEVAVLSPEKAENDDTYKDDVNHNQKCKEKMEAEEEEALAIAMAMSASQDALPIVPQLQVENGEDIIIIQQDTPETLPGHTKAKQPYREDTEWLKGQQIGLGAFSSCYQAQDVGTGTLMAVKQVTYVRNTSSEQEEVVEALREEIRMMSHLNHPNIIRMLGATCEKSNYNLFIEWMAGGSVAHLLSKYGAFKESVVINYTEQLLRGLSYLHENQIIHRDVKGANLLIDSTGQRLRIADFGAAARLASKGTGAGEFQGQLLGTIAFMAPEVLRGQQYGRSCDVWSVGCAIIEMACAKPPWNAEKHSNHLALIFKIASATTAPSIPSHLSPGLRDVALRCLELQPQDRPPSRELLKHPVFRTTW
T2 sequence (P00533 25-1210): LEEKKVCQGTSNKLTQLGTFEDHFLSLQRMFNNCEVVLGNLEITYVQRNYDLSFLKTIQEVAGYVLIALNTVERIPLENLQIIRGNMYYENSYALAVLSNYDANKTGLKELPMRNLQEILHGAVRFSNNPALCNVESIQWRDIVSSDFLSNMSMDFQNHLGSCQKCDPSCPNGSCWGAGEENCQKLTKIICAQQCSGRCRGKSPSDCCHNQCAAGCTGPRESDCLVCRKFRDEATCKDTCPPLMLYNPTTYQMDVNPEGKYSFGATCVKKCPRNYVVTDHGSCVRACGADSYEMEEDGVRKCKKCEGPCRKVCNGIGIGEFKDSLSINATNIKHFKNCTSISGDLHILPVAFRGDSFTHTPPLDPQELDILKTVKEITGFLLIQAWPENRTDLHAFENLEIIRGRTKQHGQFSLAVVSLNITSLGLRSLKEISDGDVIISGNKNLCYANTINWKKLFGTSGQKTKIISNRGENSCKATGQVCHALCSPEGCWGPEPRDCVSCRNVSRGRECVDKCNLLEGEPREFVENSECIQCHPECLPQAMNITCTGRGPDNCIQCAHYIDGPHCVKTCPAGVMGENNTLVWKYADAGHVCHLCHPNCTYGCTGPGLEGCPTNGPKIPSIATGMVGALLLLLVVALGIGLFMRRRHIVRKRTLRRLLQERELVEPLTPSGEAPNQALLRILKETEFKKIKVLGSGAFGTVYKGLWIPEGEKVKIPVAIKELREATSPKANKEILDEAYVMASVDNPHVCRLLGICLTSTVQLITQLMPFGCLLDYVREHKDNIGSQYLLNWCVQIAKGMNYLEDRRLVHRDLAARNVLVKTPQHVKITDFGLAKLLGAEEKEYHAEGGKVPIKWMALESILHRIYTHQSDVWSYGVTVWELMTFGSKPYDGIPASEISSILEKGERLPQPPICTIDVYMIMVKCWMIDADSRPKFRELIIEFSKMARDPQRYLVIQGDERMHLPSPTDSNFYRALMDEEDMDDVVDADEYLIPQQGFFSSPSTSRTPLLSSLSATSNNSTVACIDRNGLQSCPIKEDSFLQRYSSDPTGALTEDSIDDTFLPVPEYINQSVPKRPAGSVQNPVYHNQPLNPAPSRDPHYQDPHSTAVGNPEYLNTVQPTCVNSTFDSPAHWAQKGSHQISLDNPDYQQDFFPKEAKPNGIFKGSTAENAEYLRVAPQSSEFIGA
T7 sequence (Q8TDX7 whole entry): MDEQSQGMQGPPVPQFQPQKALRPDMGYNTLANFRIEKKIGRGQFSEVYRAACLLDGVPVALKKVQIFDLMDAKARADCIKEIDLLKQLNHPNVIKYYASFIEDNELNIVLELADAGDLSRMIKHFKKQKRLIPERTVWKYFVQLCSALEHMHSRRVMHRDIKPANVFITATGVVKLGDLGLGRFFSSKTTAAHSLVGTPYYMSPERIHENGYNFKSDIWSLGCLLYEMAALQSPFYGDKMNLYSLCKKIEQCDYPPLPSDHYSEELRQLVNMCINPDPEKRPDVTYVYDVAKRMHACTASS

Compound	remaining binding at 1 µM (panel of 468 kinases [1]) [%]	remaining binding at 1 µM (panel of 468 kinases [2]) [%]	remaining binding at 1 µM (panel of 468 kinases [3]) [%]	remaining binding at 1 µM (panel of 468 kinases [4]) [%]	remaining binding at 1 µM (panel of 468 kinases [5]) [%]	remaining binding at 1 µM (panel of 468 kinases [6]) [%]	remaining binding at 1 µM (panel of 468 kinases [7]) [%]	remaining binding at 1 µM (panel of 468 kinases [8]) [%]	remaining binding at 1 µM (panel of 468 kinases [9]) [%]	remaining binding at 1 µM (panel of 468 kinases [10]) [%]
CNc1nc(Nc2ccc(S(=O)(=O)N3CCC(N4CCOCC4)CC3)cc2OC)nc2[nH]cc(Cl)c12 [Compound 12, 5-chloro-N2-(2-methoxy-4-((4-morpholinopiperidin-1-yl)sulfonyl)phenyl)-N4-methyl-7H-pyrrolo[2,3-d]pyrimidine-2,4-diamine]	89	89	79	68	11	81	100	92	92	76
CNc1nc(Nc2ccc(C(=O)N3CCC(N4CCOCC4)CC3)c3c2OCO3)nc2[nH]cc(Cl)c12 [Compound 75, (7-((5-chloro-4-(methylamino)-7H-pyrrolo[2,3-d]pyrimidin-2-yl)amino)benzo[d][1,3]dioxol-4-yl)(4-morpholinopiperidin-1-yl)methanone]	86	80	82	42	5.3	100	99	100	39	67
CNc1nc(Nc2ccc(P3(=O)CCN(C4CCOCC4)CC3)cc2OC)nc2[nH]cc(Cl)c12 [Compound 77, 4-(4-((5-chloro-4-(methylamino)-7H-pyrrolo[2,3-d]pyrimidin-2-yl)amino)-3-methoxyphenyl)-1-(tetrahydro-2H-pyran-4-yl)-1,4-azaphosphinane 4-oxide]	96	84	73	25	1.9	100	100	98	72	80
